According to a melting point compilation (Tetko et al.; mined from patent text by program, amines drawn as free bases though some values may be those of a salt):

Row | melting point [°C] | Structure (SMILES)
1 | 157 to 159 | CCN(CC)Cc1cc(NC(C)=O)c2c(c1O)CCCC2
2 | 238 to 240 | CCOC(=O)c1cccc(Nc2ncc3cc(-c4c(Cl)cccc4Cl)c(=O)n(C)c3n2)c1
3 | 94 to 95 | CCCc1c[nH]nc1OCc1ccc2ccccc2n1
4 | 152 to 153 | Cc1nnc(-c2ccc3occ(-c4ccc(C(=O)N(C)C)c(F)c4)c3c2)o1
5 | 129 to 130 | CCOC(=O)c1ccc(OCC(=O)O)cc1
6 | 257 to 258 | O=C1Nc2cccc(/C=C/c3ccccc3Cl)c2/C1=C/c1ccc[nH]1
7 | 85 to 86 | Cc1c(C)c2c(c(C)c1NC(=O)CCCOCc1ccccc1)C(c1ccc(C(C)C)cc1)CO2 (stereo unspecified)
8 | 224 to 226 | CCCCN(CCCC)c1ccc(C=Cc2ccc(C=CC3=C(C#N)C(=C(C#N)C#N)OC3(C)C)cc2)cc1
9 | 158 to 162 | O=C(O)CS(=O)(=O)C12CC3CC(CC(C3)C1)C2
10 | 204 to 205 | CNc1ncc2cc(-c3ccccc3)c(NC)nc2n1
11 | 158 | CN1CCC(C2(O)c3sccc3CCn3ncnc32)CC1 (stereo unspecified)
12 | 118 | CCOC(=O)c1cnc2ccc(-c3ccc(C(F)(F)F)cc3)cn12
13 | 155 | NNc1ncc(-c2ccccc2)cn1
14 | 205 to 206 | Oc1c2c(nn1-c1nc3ccccc3[nH]1)CCc1ccccc1-2
15 | 115 to 117 | CCCCCCCCCCCCCCN(C(=O)CCCCCCCCCCC)C1(N)OC(CO)C(O)C(O)C1C(=O)C(N)C(=O)C(C)N (stereo unspecified)
16 | 247 to 249 | Cn1c(C(=O)O)c(-c2ccc(F)cc2)c2nccnc2c1=O
17 | 58 to 64 | Brc1ccc2c(c1)CCC=C2n1ccnc1
18 | 113 to 135 | C=CS(=O)CCNC(=O)NC(=O)CCCl (stereo unspecified)

Row | melting point [°C] | Structure (SMILES)
19 | 191 to 192 | CCCC(=O)Nc1cc([N+](=O)[O-])c(Sc2cccc3cnccc23)cc1N
20 | 214 | Cc1ncc2c(c1OCC(=O)O)COC2c1ccc(F)cc1 (stereo unspecified)
21 | 235 | CCc1ccc2c(c1)C=Cc1cc(C)ccc1C2c1cn(-c2ccnc(N3CC(C(=O)Nc4nc(CC(=O)O)cs4)C3)n2)c(=O)[nH]c1=O (stereo unspecified)
22 | 167 to 170 | CCCCc1nn(-c2cc(N)ccc2Cl)c(=O)n1Cc1ccc(-c2ccccc2S(=O)(=O)NC(C)(C)C)cc1F
23 | 75 to 81 | CC1CN(c2nnc(N3CCOC(C)C3)c3cc(-c4ccccc4)ncc23)CCO1 (stereo unspecified)
24 | 122 to 125 | O=C(O)c1c(F)cccc1-c1ccccc1
25 | 60 to 62 | CCNC(=O)OCCOc1ccc(Oc2ccc(F)cc2)cc1
26 | 112 to 115 | O=C1c2ccccc2CN1C1CCN(c2ccc(C(OCc3ccccc3)c3ccccc3)cc2)CC1 (stereo unspecified)
27 | 108 to 109 | CC(C)(C)OC(=O)N1CCN(Cc2nc(-c3cc(C(C)(C)C)c(O)c(C(C)(C)C)c3)cs2)CC1
28 | 220 to 221 | CS(=O)(=O)Nc1c(C(=O)c2cccc(Cl)c2)[nH]c2ccc(Cl)cc12
29 | 77 to 78 | O=C1c2ccccc2C(=O)N1CCCCOc1ccccn1
30 | 154 to 156 | CC1CCCC(C)(C)C1C(O)c1ccc(C(N)=NO)c(F)c1 (stereo unspecified)
31 | 165 to 168 | COc1cc2c(c3c1OC(C)(C)C3)C(c1cccc(-c3ccc(N)nc3)c1)=NC(C)(C)C2
32 | 127 to 129 | COC(=O)c1ccc(OC)c2oc(C)cc12
33 | 279 to 281 | O=C(O)C1(c2ccc(Nc3nc(N4CCOCC4)nc4c3CCC4)cc2)CCC1
34 | 225 to 226 | O=C(NCC1CCC(CNS(=O)(=O)c2ccc3ccccc3c2)CC1)C1CCc2ccccc2C1 (stereo unspecified)
35 | 185 to 193 | Cc1cc2ccccc2nc1Sc1ccc2c(c1)CC[C@H]1N(C)C(=O)CC[C@]21C
36 | 93 to 94 | CC(C)C(Nc1ccc(C(F)(F)F)cc1)C(N)=O (stereo unspecified)

Second part, the compound before the results:

Row | Structure (SMILES) | melting point [°C]
37 | Cc1ccc(S(=O)(=O)Sc2cc(C)c(NC(=O)OC(C)(C)C)cc2C(C)(C)C)cc1 | 106 to 108
38 | CC(C)N(CCCC(=O)OC1c2ccccc2C(=O)N1c1ccc2ccc(Cl)nc2n1)C(C)C (stereo unspecified) | 118
39 | N#CCCCCCCCCCOc1cccc(C(N)=O)c1 | 96 to 97
40 | CCc1nn2c(N)cc(C)nc2c1S(=O)(=O)c1ccc(OC)cc1 | 186 to 188
41 | COc1ccc(-c2nc3n(c2-c2ccccn2)CCC3)cc1 | 142 to 145
42 | CC(C)(C)OC(=O)N1CCC(Oc2c(F)cc3c(=O)c(C(=O)O)cn(C4CC4)c3c2F)C1 (stereo unspecified) | 158 to 160
43 | CC(=O)N[C@@H]1C(O)O[C@H](COC(C)=O)[C@@H](O)[C@@H]1O (stereo partly specified) | 47 to 51
44 | OC(CC(Br)=CBr)(CC(Br)=CBr)Cn1cncn1 (stereo unspecified) | 100
45 | O=C(COC1CCCCO1)c1ccccn1 (stereo unspecified) | 63 to 65
46 | O=c1[nH]c(=O)n(Cc2cccc(OCc3csc(-c4ccccc4)n3)c2)o1 | 139 to 140
47 | CCOC(=O)CCC1CCN(C(=O)[C@H](C)NC(=O)c2ccc(C(O)=NN)cc2)CC1 | 194 to 195
48 | CCCCCCCCCCCCCCCCCCNC(=O)c1cc(O)cc(O)c1 | 114 to 117
49 | CCOC(=O)c1cn(Cc2ccccc2)nc1OCc1ccc(OCc2nc(-c3ccco3)oc2C)c(OCc2ccccc2)c1 | 127 to 128
50 | O=Cc1cc(Cl)ccc1OCCc1ccccc1 | 73 to 74
51 | C=CCOC(=O)Cn1c(=O)n(S(=O)(=O)c2ccc(Cl)cc2)c(=O)c2ccccc21 | 164 to 166
52 | C=Nn1nc(NC)n(OCC)c1=O | 169
53 | COc1ccc(CN2C(=O)C(C)(c3cc(COCCO)ccc3Cl)c3cc(Cl)ccc32)c(OC)c1 (stereo unspecified) | 53
54 | C1=CC2=NCCN2C=C1 | 178 to 180

Row | Structure (SMILES) | melting point [°C]
55 | COc1ccc2c(c1)c(CCO)c(C)n2Cc1ccc(Cl)cc1 | 113 to 115
56 | CCCN1C(=O)CC2CCC(C)C3CCC4(C)OOC23C1O4 (single isomer, unassigned; (-)) | 125 to 126
57 | CCOC(=O)COc1ccc(N2CCN(C(=O)OC(C)(C)C)CC2)cc1C=O | 93 to 94
58 | CCOC(=O)Cc1nn2c(-c3ccc(OC)cc3)nnc2c2ccccc12 | 201 to 202
59 | Cc1c(C(=O)CS(=O)(=O)Cc2ccc(Cl)cc2)sc2ccc(Cl)cc12 | 204 to 206
60 | Cc1cc2c(-c3cccc(C=O)c3)c(CC(=O)Nc3ccc(Cl)cc3C(F)(F)F)c(=O)oc2cc1Cl | 232 to 233
61 | c1ccc(-c2nc3n(c2-c2ccccn2)CCS3)nc1 | 142 to 143
62 | Cc1cc(-c2ccc(S(C)(=O)=O)cc2)n(-c2ccc(F)cc2)c1Br | 158 to 159
63 | Cc1cc(C)n2nc(SCc3ccccc3)c(C#N)c2n1 | 140
64 | CC(C)(C)OC(=O)CN(CBr)C(=O)c1ccccc1 | 98 to 102
65 | Cc1ccc(C(=O)NNc2ccc(NC(=S)Nc3ccccc3)cc2)cc1 | 186 to 187
66 | O=C(/C=C/[C@@H]1[C@H]2CC(=O)O[C@H]2C[C@H]1OC(=O)c1ccc(-c2ccccc2)cc1)CCc1ccccc1 | 129 to 130
67 | CCc1noc(-c2ncc3[nH]c4c(c3c2COC)CCCC4)n1 | 197 to 199
68 | CCOc1cscc1C=O | 42 to 45
69 | COC(=O)c1ccc([N+](=O)[O-])cc1S(=O)(=O)Cl | 86 to 88
70 | COC(=O)c1ccc(C(=O)NS(=O)(=O)c2ccccc2)cc1 | 267 to 270
71 | CCOC(=O)c1ccsc1NC(=O)NCCN1CCN(c2ccccc2)CC1 | 117 to 120
